Structures are written as SMILES. pIC50: −log10 of the molar value. Where two headings read alike, the source gives them in different places.

One experiment deals with MV-4-11 cells. Kind of experiment: Antiproliferative activity against MV-4-11 cells (CellTiter-Glo, 72 h). The class given is cell-based. The settings on record: Homo sapiens, MV4-11, MV-4-11 cells. Here is the method:
MV411 cells in the logarithmic growth phase were diluted in a medium (RPMI+10% FBS) and plated at 5,000 cells/well in 96-well whole black plates (WHB) with 50 μL/well. After plating, the plates were incubated in an incubator at 5% CO2 and 37° C. for 24 h before the compounds were added. The compounds were prepared into a 10 mM stock solution in DMSO and diluted in a culture medium to the desired concentrations (a final DMSO concentration of 0.2%). […] The plates were incubated at 5% CO2 and 37° C. for 72 h. After the incubation was complete, the plates were equilibrated at room temperature for 30 min. CellTiter-Glo® Reagent (Promega G7573) was added at 100 μL/well. The plates were shaken for 12 min on a microplate shaker. The luminescence value was measured at room temperature by the GloMax navigator (Promega GM2010).
In general terms: In ATP-based viability assays light output follows the ATP content of the culture.

In a further experiment the target is T1, GSPT1 protein (Homo sapiens, UniProt P15170).
T1 construct: The whole cell lysate was prepared using a RIPA lysis buffer; endogenous in cells; host or cells: NB-4 cells
Briefly: Degradation of GSPT1 protein in NB-4 cells (Western blot). It is filed as cell-based. The settings on record: for inhibition at 1 µM: NB-4 cells, compound 1 μM, 6 h, read-out: GSPT1 degradation. As to the method:
150 μL of DMSO and the compounds (1 μM) were added, and the mixture was incubated in an incubator at 5% CO2 and 37° C. for 6 h. The cells were centrifuged, and the culture medium was discarded. PBS was added for washing and then discarded. The whole cell lysate was prepared using a RIPA lysis buffer containing a protease inhibitor cocktail and a phosphatase inhibitor, and incubated on ice for 30 min. The mixture was centrifuged, and the cell debris was discarded. The whole cell lysate supernatant was collected and transferred to a fresh EP tube. Samples were prepared using a loading buffer after a BCA protein assay. The samples were incubated in a metal bath at 100° C. for 10 min.
The samples were electrophoretically separated from proteins on a 4-20% precast gel (SDS-PAGE gel), transferred to a PVDF membrane, blocked with 5% NFDM/TBST for 1 h at room temperature, co-incubated overnight at 4° C. with the primary antibody, and co-incubated for 2 h at room temperature with the secondary antibody on the next day. The signals were detected on the […]™ imaging system.
For orientation: In western blotting, separated proteins are transferred to a membrane and probed.

The mark [1] stands for this setting: 72 h, read-out: Antiproliferative activity IC50.

T1 sequence (P15170 whole entry): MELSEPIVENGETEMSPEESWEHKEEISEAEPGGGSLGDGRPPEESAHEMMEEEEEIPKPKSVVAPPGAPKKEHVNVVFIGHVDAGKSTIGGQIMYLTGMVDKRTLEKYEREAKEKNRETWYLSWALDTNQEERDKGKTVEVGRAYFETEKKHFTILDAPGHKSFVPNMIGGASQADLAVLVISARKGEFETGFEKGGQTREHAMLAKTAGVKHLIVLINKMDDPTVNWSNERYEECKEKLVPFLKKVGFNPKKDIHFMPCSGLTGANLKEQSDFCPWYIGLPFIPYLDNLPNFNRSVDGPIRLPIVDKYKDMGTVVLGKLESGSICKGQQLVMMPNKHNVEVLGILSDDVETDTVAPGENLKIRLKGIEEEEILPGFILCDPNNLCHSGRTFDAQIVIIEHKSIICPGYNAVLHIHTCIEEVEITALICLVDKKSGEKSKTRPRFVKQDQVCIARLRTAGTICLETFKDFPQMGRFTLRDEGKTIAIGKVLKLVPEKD

Consider `Nc1cc(C(=O)NCc2ccc3c(c2F)CN(C2CCC(=O)NC2=O)C3=O)ccc1Cl` (stereo not shown) [FDAB-113], for which the pIC50 in the experiment with MV-4-11 cells (setting [1]) is 7.00 to 8.00. Besides, at GSPT1 protein, the inhibition at 1 µM was above 80%.

Regarding `N#Cc1cc(C(=O)NCc2ccc3c(c2F)CN(C2CCC(=O)NC2=O)C3=O)ccc1Cl` (stereo not shown) [FDAB-82], in the experiment with MV-4-11 cells (setting [1]), the pIC50 is below 6.00. Moreover, the inhibition at 1 µM on GSPT1 protein is below 25%.

Consider `CC(=O)c1ccc(C(=O)NCc2ccc3c(c2F)CN(C2CCC(=O)NC2=O)C3=O)cc1` (stereo not shown) [FDAB-99], for which the pIC50 with MV-4-11 cells (setting [1]) was 7.00 to 8.00. Further, at GSPT1 protein, the inhibition at 1 µM is 50 to 80%.

With `O=C1CCC(N2Cc3c(ccc(CNC(=O)c4ccc(Cl)cc4F)c3Cl)C2=O)C(=O)N1` (stereo not shown) [FDAB-119], in the experiment on MV-4-11 cells (setting [1]), the pIC50 is 7.00 to 8.00. Also, the inhibition at 1 µM at GSPT1 protein was above 80%.

For the molecule `CCc1ccc(C(=O)NCc2ccc3c(c2F)CN(C2CCC(=O)NC2=O)C3=O)cc1` (stereo not shown) [FDAB-90], the pIC50 with MV-4-11 cells (setting [1]) is 8.00 to 9.00. For the same molecule, the inhibition at 1 µM at GSPT1 protein is above 80%.

`O=C1CCC(N2Cc3c(ccc(CNC(=O)c4ccc(Cl)c(F)c4)c3F)C2=O)C(=O)N1` (stereo not shown) [FDAB-116]: the pIC50 in the experiment with MV-4-11 cells (setting [1]) was 8.00 to 9.00. Further, the inhibition at 1 µM on GSPT1 protein is above 80%.

`Cc1ccc(C(=O)NCc2ccc3c(c2Cl)CN(C2CCC(=O)NC2=O)C3=O)cc1F` (stereo not shown) [FDAB-122]: in the experiment on MV-4-11 cells (setting [1]), the pIC50 was 6.00 to 7.00. For the same molecule, on GSPT1 protein, the inhibition at 1 µM was below 25%.

For the molecule `NCc1ccc2c(c1Cl)CN(C1CCC(=O)NC1=O)C2=O` (stereo not shown) [FDAB-12], the pIC50 with MV-4-11 cells (setting [1]) is below 6.00. In addition, on GSPT1 protein, the inhibition at 1 µM is below 25%.

For the molecule `O=C1CCC(N2Cc3cc(CNC(=O)c4nc5ccccc5[nH]4)c(F)cc3C2=O)C(=O)N1` (stereo not shown) [FDAB-33], the pIC50 in the experiment on MV-4-11 cells (setting [1]) is below 6.00. Besides, the inhibition at 1 µM at GSPT1 protein was below 25%.

For `O=C1CCC(N2Cc3c(ccc(CNC(=O)c4ccc(Oc5ccccc5)cc4)c3F)C2=O)C(=O)N1` (stereo not shown) [FDAB-101], in the experiment with MV-4-11 cells (setting [1]), the pIC50 was above 9.00. Besides, the inhibition at 1 µM on GSPT1 protein was above 80%.

Take `O=C1CCC(N2Cc3cc(CNC(=O)c4ccc(Cl)cc4)ccc3C2=O)C(=O)N1` (stereo not shown) [reference compound]: in the experiment with MV-4-11 cells (read-out: IC50 against MV-4-11 cell proliferation), the pIC50 is 6.99. The “degradation of GSPT1 protein” value at GSPT1 protein (co-incubated for 6 h with NB-4 cells) is 65%.

With `O=C1CCC(N2Cc3c(ccc(CNC(=O)c4ccc(N5CCCC5)cc4)c3F)C2=O)C(=O)N1` (stereo not shown) [FDAB-110], the pIC50 with MV-4-11 cells (setting [1]) is above 9.00. For the same molecule, the inhibition at 1 µM on GSPT1 protein was above 80%.

Turning to `O=C1CCC(N2Cc3cc(CNC(=O)c4ccncn4)c(F)cc3C2=O)C(=O)N1` (stereo not shown) [FDAB-38], in the experiment with MV-4-11 cells (setting [1]), the pIC50 was below 6.00. The inhibition at 1 µM on GSPT1 protein was below 25%.

As for `O=C(Cc1cccc(-c2ccccc2)c1)NCc1ccc2c(c1F)CN(C1CCC(=O)NC1=O)C2=O` (stereo not shown) [FDAB-133], the pIC50 in the experiment with MV-4-11 cells (setting [1]) was above 9.00. Besides, the inhibition at 1 µM at GSPT1 protein is above 80%.

For `O=C1CCC(N2Cc3cc(CNC(=O)C4CCCCC4)c(F)cc3C2=O)C(=O)N1` (stereo not shown) [FDAB-42], the pIC50 with MV-4-11 cells (setting [1]) was below 6.00. Also, the inhibition at 1 µM on GSPT1 protein is below 25%.

Take `O=C1CCC(N2Cc3c(ccc(CNC(=O)c4cc5cc(F)ccc5o4)c3Cl)C2=O)C(=O)N1` (stereo not shown) [FDAB-69]: in the experiment with MV-4-11 cells (setting [1]), the pIC50 was 8.00 to 9.00. Also, the inhibition at 1 µM at GSPT1 protein is 50 to 80%.

In the case of `NCc1cc(F)cc2c1CN(C1CCC(=O)NC1=O)C2=O` (stereo not shown) [FDAB-17], the pIC50 in the experiment on MV-4-11 cells (setting [1]) was 6.00 to 7.00. For the same molecule, the inhibition at 1 µM on GSPT1 protein is below 25%.

Take `[2H]c1c([2H])c([2H])c(C(=O)NCc2ccc3c(c2F)CN(C2CCC(=O)NC2=O)C3=O)c([2H])c1[2H]` (stereo not shown) [FDAB-88]: the pIC50 in the experiment with MV-4-11 cells (setting [1]) is below 6.00. Also, on GSPT1 protein, the inhibition at 1 µM is below 25%.

`CC(C)(C)OC(=O)NCc1ccc2c(c1Cl)CN(C1CCC(=O)NC1=O)C2=O` (stereo not shown) [FDAB-11]: the pIC50 with MV-4-11 cells (setting [1]) is below 6.00. For the same molecule, on GSPT1 protein, the inhibition at 1 µM is below 25%.

Regarding `O=C1CCC(N2Cc3c(ccc(CNC(=O)c4ccc(-c5ccccc5)cc4)c3F)C2=O)C(=O)N1` (stereo not shown) [FDAB-84], the pIC50 in the experiment on MV-4-11 cells (setting [1]) is above 9.00. Further, on GSPT1 protein, the inhibition at 1 µM was above 80%.

For `O=C(C#CC1CC1)NCc1cc2c(cc1F)C(=O)N(C1CCC(=O)NC1=O)C2` (stereo not shown) [FDAB-64], the pIC50 in the experiment with MV-4-11 cells (setting [1]) was 6.00 to 7.00. Further, on GSPT1 protein, the inhibition at 1 µM was 50 to 80%.

With `CCCOc1ccc(/C=C/C(=O)NCc2ccc3c(c2F)CN(C2CCC(=O)NC2=O)C3=O)cc1` (stereo not shown) [FDAB-143], the pIC50 in the experiment with MV-4-11 cells (setting [1]) was above 9.00. Also, the inhibition at 1 µM on GSPT1 protein was above 80%.

On to `CCN1C(=O)CCC(N2Cc3c(ccc(CNC(=O)c4ccc(Cl)cc4)c3F)C2=O)C1=O` (stereo not shown) [FDAB-125], for which the pIC50 in the experiment with MV-4-11 cells (setting [1]) is below 6.00. For the same molecule, the inhibition at 1 µM at GSPT1 protein was below 25%.

Values taken from patent US20250282746A1, “HALOGEN-SUBSTITUTED ISOINDOLINE COMPOUND AND USE THEREOF” (CHENGDU FENDI PHARMACEUTICAL CO., LTD., priority 2022, published 2025).
